Source: patent publication US11078277B2, “Methods and pharmaceutical compositions for enhancing CD8+ T cell-dependent immune responses in subjects suffering from cancer” (INSERM (INSTITUT NATIONAL DE LA SANTE ET DE LA RECHERCHE …, priority 2016, dated 2021)

Test system: Smpd3 expression
Assay: Smpd3 expression by RT-qPCR in B16K1 melanoma cells incubated with 5-aza or TSA
Type: cell-based, murine
Experimental: A, B16K1 cells expressing (2+) or not (2−) V5-tagged nSMase 2 were analyzed by Western blot using anti-V5 and anti-β-actin antibodies. B, Neutral SMase activity in B16K1 nSMase 2+ (2+) and nSMase 2− (2−) as well as in mock-transfected B16K1 cells. C, Intracellular ceramide levels in B16K1 nSMase 2+(2+) and nSMase 2− (2−) as well as in mock-tranfected B16K1 cells. Data are expressed as the % of values obtained with mock-transfected B16K1 cells. Values are shown as means±sem of 3 independent experiments (B and C). D, In vitro B16K1 cell growth was evaluated in 10% FCS medium (left panel) or 0% FCS medium ([…]). […] Cells were analysed by Western blot using anti-V5 and anti-β-actin antibodies. […] Data are shown as means±sem of 3 independent experiments. (*: p<0.05; **: p<0.01). G, B16K1 melanoma cells were incubated or not with 1 μM of 5 aza-2 deoxycitidine (5-aza) during 72 hours or with 0.1 μM Trichostatine A (TSA) during the last 16 hours. Smpd3 expression was analysed by RT-qPCR. Data are shown as means±sem of 3 independent experiments.
RNA isolation and qRT-PCR. RNA isolation from cells and exosomes was performed by using the Qiagen RNeasy mini kit and Qiagen miRNeasy kit respectively, according to manufacturer's instructions. […]

Row | Compound | Smpd3 expression (1 μM 5-aza during 72 hours) | Smpd3 expression (0.1 μM TSA during the last 16 hours)
1 | Nc1ncn([C@@H]2O[C@H](CO)[C@@H](O)[C@H]2O)c(=O)n1 [5-Azacytidine] | not | 
2 | CC(/C=C/C(=O)NO)=C\[C@@H](C)C(=O)c1ccc(N(C)C)cc1 [trichostatin A] |  | greatly enhanced
